Data from patent US20250282760A1 (Merck Sharp & Dohme LLC, priority 2022, published 2025).
pIC50: −log10 of the molar value.

Target: T1, human OX2R (Homo sapiens, UniProt O43614)
T1 construct: expressed in transfected cells; host or cells: Chinese hamster ovary (CHO) cells, kept under G418 selection
T1 sequence (O43614 1-444): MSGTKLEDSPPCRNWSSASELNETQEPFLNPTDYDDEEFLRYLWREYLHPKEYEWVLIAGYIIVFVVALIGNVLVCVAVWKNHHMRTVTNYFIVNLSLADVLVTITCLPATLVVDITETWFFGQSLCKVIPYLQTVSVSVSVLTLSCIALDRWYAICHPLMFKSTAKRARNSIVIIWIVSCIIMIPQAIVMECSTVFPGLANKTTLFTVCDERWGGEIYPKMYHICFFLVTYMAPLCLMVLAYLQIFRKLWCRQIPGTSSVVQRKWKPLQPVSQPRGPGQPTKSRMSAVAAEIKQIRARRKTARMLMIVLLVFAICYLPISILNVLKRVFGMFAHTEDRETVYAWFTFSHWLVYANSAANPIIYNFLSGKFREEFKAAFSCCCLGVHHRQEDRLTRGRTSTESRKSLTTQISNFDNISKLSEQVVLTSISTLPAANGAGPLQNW
Assay: IPOne (IP-1 accumulation) assay of orexin receptor agonist activity in CHO cells expressing human OX2R
Assay type: cell-based
Details: for pIC50: CHO cells expressing human OX2R, IP-One assay, 2 hours incubation, four parameter logistic fit, read-out: hOX2R_IP IC50; for Emax: CHO, percent activity at maximum tested concentration, relative to reference compound at 1 uM (100% activity) for human OX2R
Description: The utility of the compounds in accordance with the present invention as orexin receptor OX1R and/or OX2R agonists may be readily determined without undue experimentation by methodology well known in the art. Both the OX1R and/or OX2R G-coupled protein receptors (GPCRs) couple through the Gαq signaling pathway, which ultimately promotes calcium mobilization via inositol triphosphate (IP3) production. […] The utility of the compounds in accordance with the present invention as orexin receptor OX1R and/or OX2R agonists may be determined utilizing this assay.
In a typical experiment, the OX1 and OX2 receptor agonist activity is determined in accordance with the following general experimental method. Chinese hamster ovary (CHO) cells expressing human OX1R and/or the human OX2R were grown in Iscove's modified DMEM containing glutaMAX™, 1% G418, 100 U/mL penicillin, 100 μg/mL streptomycin and 10% heat-inactivated qualified fetal bovine serum (FBS). […] During this incubation, IP-one detection reagents were prepared (38:1:1 lysis buffer:D2:AB-cryptate reagents).
For each compound, data were fit to a four parameter logistic fit (ActivityBase software) and the EC50 was reported as the inflection point of the resulting curve. Percent effect for each test compound was determined as the percentage of sample raw value/mean max effect, where the mean max effect was derived from the mean raw value of 32 control wells per assay plate (using Orexin A (cat #003-30) at 1 μM for human OX1R and a reference compound at 1 uM with 100% activity previously established by comparison to Orexin A for human OX2R). The intrinsic orexin receptor agonist activity of a compound which may be used in the present invention may be determined by these assays.

| Structure (SMILES) | pIC50 | Emax |
| --- | --- | --- |
| CCc1cc(-c2ccco2)ccc1CNC(=O)[C@H]1CN(S(=O)(=O)c2ccccc2)C[C@@H](C)N1C(=O)C(C)C (relative stereo) [Example 47-6, cis-N-(2-ethyl-4-(furan-2-yl)benzyl)-1-isobutyryl-6-methyl-4-(phenylsulfonyl)piperazine-2-carboxamide] | 7.96 | 99.5% |
| C[C@@H]1CN(S(=O)(=O)c2ccccc2)C[C@H](C(=O)NCc2ccc3ccccc3c2)N1C(=O)c1cccs1 (relative stereo) [Example 57, cis-6-methyl-N-(naphthalen-2-ylmethyl)-4-(phenylsulfonyl)-1-(thiophene-2-carbonyl)piperazine-2-carboxamide] | 5.59 | 94.3% |
| Cc1cc(-c2ccco2)ccc1CNC(=O)[C@H]1CN(S(=O)(=O)c2ccccc2)C[C@@H](C)N1C(=O)C(C)C (relative stereo) [Example 29, cis-N-(4-(furan-2-yl)-2-methylbenzyl)-1-isobutyryl-6-methyl-4-(phenylsulfonyl)piperazine-2-carboxamide] | 7.88 | 99.6% |
| CCOc1ccc(CNC(=O)[C@H]2CN(S(=O)(=O)c3ccccc3)C[C@@H](C)N2C(=O)C(C)C)cc1 (relative stereo) [Example 19-11, cis-N-(4-ethoxybenzyl)-1-isobutyryl-6-methyl-4-(phenylsulfonyl)piperazine-2-carboxamide] | 6.58 | 93.1% |
| CC(C)C(=O)N1[C@H](C)CN(S(=O)(=O)c2ccccc2)C[C@@H]1C(=O)NCc1ccc(-c2ccccc2)cc1 (relative stereo) [Example 19-3, cis-N-([1,1′-biphenyl]-4-ylmethyl)-1-isobutyryl-6-methyl-4-(phenylsulfonyl)piperazine-2-carboxamide] | 7.16 | 87.1% |
| CC(C)C(=O)N1[C@H](C)CN(S(=O)(=O)c2ccccc2)C[C@@H]1C(=O)NCc1ccc2ccccc2c1 (relative stereo) [Example 19-1, cis-1-isobutyryl-6-methyl-N-(naphthalen-2-ylmethyl)-4-(phenylsulfonyl)piperazine-2-carboxamide] | 6.61 | 100% |
| CCC(C)C(=O)N1CCN(S(=O)(=O)c2ccccc2)CC1C(=O)NCc1ccc2ccccc2c1 (stereo not drawn) [Example 10-1, 1-(2-methylbutanoyl)-N-(naphthalen-2-ylmethyl)-4-(phenylsulfonyl)piperazine-2-carboxamide] | 5.37 | 101% |
| Cc1cccc(S(=O)(=O)N2CCN(C(=O)c3cccs3)C(C(=O)NCc3ccc4ccccc4c3)C2)c1 (stereo not drawn) [Example 89-2, 4-[(3-methylphenyl)sulfonyl]-N-[(naphthalen-2-yl)methyl]-1-(thiophene-2-carbonyl)piperazine-2-carboxamide] | 5.57 | 92% |
| CC(C)C(=O)N1[C@H](C)CN(S(=O)(=O)c2ccccc2)C[C@@H]1C(=O)NCc1ncc(-c2ccco2)cn1 (single isomer, unassigned) [Example 39] | 5.20 | 97.8% |
| Cc1cc(-c2ccco2)c(F)cc1CNC(=O)[C@@H]1CN(S(=O)(=O)c2ccccc2)C[C@H](C)N1C(=O)C(C)C (relative stereo) [Example 47-5, cis-N-(5-fluoro-4-(furan-2-yl)-2-methylbenzyl)-1-isobutyryl-6-methyl-4-(phenylsulfonyl) piperazine-2-carboxamide] | 7.83 | 106% |
| CCCC(=O)N1CCN(S(=O)(=O)c2ccccc2)CC1C(=O)NCc1ccc2ccccc2c1 (stereo not drawn) [Example 10-3, 1-butyryl-N-(naphthalen-2-ylmethyl)-4-(phenylsulfonyl)piperazine-2-carboxamide] | 4.91 | 87.8% |
| Cc1ccccc1C(=O)N1CCN(S(=O)(=O)c2ccccc2)CC1C(=O)NCc1ccc2ccccc2c1 (stereo not drawn) [Example 10-11, 1-(2-methylbenzoyl)-N-(naphthalen-2-ylmethyl)-4-(phenylsulfonyl)piperazine-2-carboxamide] | 4.00 | 19.4% |
